Test results published in ChEMBL document CHEMBL1201862, “PubChem BioAssay data set” (2004).
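Interpolation was linear, between the two tested concentrations surrounding the appropriate level; five concentrations were tested over 48 hours in 96-well plates. GI50 = concentration required for 50% inhibition of growth.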 Active and inactive are the calls of the source. No stated cut-off is given here; in the data, active = GI50 up to about 1.1 µM and inactive = higher.

What was measured:
Assay in all cases: DTP human tumour cell line panel, 48 h
[1] = system: HCT-116
[2] = system: Malme-3M
[3] = system: SW-620
[4] = system: TK-10
[5] = system: OVCAR-4
[6] = system: IGROV-1
[7] = system: COLO 205
[8] = system: MOLT-4
[9] = system: RXF 393
[10] = system: Hs-578T
[11] = system: SR
[12] = system: HT-29
[13] = system: SK-MEL-5
[14] = system: SK-MEL-28
[15] = system: T47D
[16] = system: PC-3
[17] = system: KM12
[18] = system: HOP-92
[19] = system: UACC-257
[20] = system: MDA-MB-435

| SMILES | GI50 [1] | GI50 [2] | GI50 [3] | GI50 [4] | GI50 [5] | GI50 [6] | GI50 [7] | GI50 [8] | GI50 [9] | GI50 [10] | GI50 [11] | GI50 [12] | GI50 [13] | GI50 [14] | GI50 [15] | GI50 [16] | GI50 [17] | GI50 [18] | GI50 [19] | GI50 [20] |
| --- | --- | --- | --- | --- | --- | --- | --- | --- | --- | --- | --- | --- | --- | --- | --- | --- | --- | --- | --- | --- |
| NNC1=NC(=O)NC(=O)C1 | > 100 µM (inactive) | > 100 µM (inactive) | > 100 µM (inactive) | > 100 µM (inactive) | > 100 µM (inactive) | > 100 µM (inactive) | > 100 µM (inactive) | > 100 µM (inactive) | > 100 µM (inactive) | > 100 µM (inactive) | > 100 µM (inactive) | > 100 µM (inactive) | > 100 µM (inactive) | > 100 µM (inactive) | > 100 µM (inactive) | > 100 µM (inactive) | > 100 µM (inactive) | 66.4 µM (inactive) | > 100 µM (inactive) | > 100 µM (inactive) |
| O=C(NC(Nc1ccc(F)cc1)(C(F)(F)F)C(F)(F)F)C(C(F)(F)F)C(F)(F)F | 4.2 µM (inactive) | 48 µM (inactive) | 1.65 µM (inactive) | > 24.9 µM (inactive) | 5.52 µM (inactive) | 7.62 µM (inactive) | 6.65 µM (inactive) | 4.86 µM (inactive) | 33.3 µM (inactive) | 20.4 µM (inactive) | 18.6 µM (inactive) | 15.5 µM (inactive) | 1.43 µM (inactive) | 17.5 µM (inactive) | 3.15 µM (inactive) | 4.91 µM (inactive) | 0.908 µM (active) | 51.3 µM (inactive) | 3.3 µM (inactive) | 1.13 µM (inactive) |
| Cc1cccc2c1C(=O)C(C1OC(=O)c3ccccc31)C2 (stereo not given) | 90.6 µM (inactive) | > 100 µM (inactive) | > 100 µM (inactive) | > 100 µM (inactive) | > 100 µM (inactive) | > 100 µM (inactive) | > 100 µM (inactive) | > 100 µM (inactive) | 45.6 µM (inactive) | 43.9 µM (inactive) | > 100 µM (inactive) | > 100 µM (inactive) | 95.5 µM (inactive) | > 100 µM (inactive) | > 100 µM (inactive) | > 100 µM (inactive) | > 100 µM (inactive) | > 100 µM (inactive) | > 100 µM (inactive) | > 100 µM (inactive) |
| CC(=O)OCC1OC(OC2CC3C(C)(C)C(=O)CC[C@]3(C)C3CC[C@]45C[C@]4(CCC5[C@@H](C)CC(O)C(O)C(C)(C)O)[C@]23C)C(O)C(O)C1O (stereo not given in full) | 7.1 µM (inactive) | 14.1 µM (inactive) | 13.2 µM (inactive) | 14.6 µM (inactive) | 12.7 µM (inactive) | 11.1 µM (inactive) | 5.85 µM (inactive) | 3.71 µM (inactive) | 10 µM (inactive) | 10.4 µM (inactive) | 4.35 µM (inactive) | 4.23 µM (inactive) | 7.66 µM (inactive) | 3.24 µM (inactive) | 5.68 µM (inactive) | 9.82 µM (inactive) | 6.43 µM (inactive) | 3.18 µM (inactive) | 11.2 µM (inactive) | 8.99 µM (inactive) |
| NC(=O)NC(=O)c1cccc(NC(=O)CCl)c1 | 0.392 µM (active) | 5.22 µM (inactive) | 0.621 µM (active) | 1.35 µM (inactive) | 2.19 µM (inactive) | 2.79 µM (inactive) | 0.394 µM (active) | 1.11 µM (active) | 1.04 µM (active) | 3.9 µM (inactive) | 0.124 µM (active) | 0.883 µM (active) | 0.71 µM (active) | 7 µM (inactive) | 2.18 µM (inactive) | 1.08 µM (active) | 0.579 µM (active) | 4.34 µM (inactive) | 1.19 µM (inactive) | 0.518 µM (active) |
| S=c1[nH]nc(Cc2ccccc2)c(=S)[nH]1 | > 61 µM (inactive) | > 55.6 µM (inactive) | > 100 µM (inactive) | > 56 µM (inactive) | > 60.7 µM (inactive) | > 53.1 µM (inactive) | > 79.6 µM (inactive) | > 59.7 µM (inactive) | 32.8 µM (inactive) | 33 µM (inactive) | > 65 µM (inactive) | > 51.8 µM (inactive) | 46.7 µM (inactive) | > 68.2 µM (inactive) | 21.6 µM (inactive) | 24.9 µM (inactive) | > 79.8 µM (inactive) | 23.3 µM (inactive) | > 56.8 µM (inactive) | 63 µM (inactive) |
| CCN(CC)CC(O)CNc1ccc(NCC(O)CCl)c2c1C(=O)c1ccccc1C2=O (stereo not given) | 1.67 µM (inactive) | 13.4 µM (inactive) | 1.28 µM (inactive) | 12.1 µM (inactive) | 6.52 µM (inactive) | 10 µM (inactive) | 6.47 µM (inactive) | 0.484 µM (active) | 12.6 µM (inactive) | 11.6 µM (inactive) | 1.05 µM (active) | 3.31 µM (inactive) | 7.48 µM (inactive) | 11.5 µM (inactive) | 21.1 µM (inactive) | 6.47 µM (inactive) | 4.15 µM (inactive) | 5.58 µM (inactive) | 6.04 µM (inactive) | 4.45 µM (inactive) |
